Test results published in patent US8501809B2, “Inhibitors of α4 mediated cell adhesion” (Mitsubishi Tanabe Pharma Corporation, priority 2000, dated 2013).

Structure (SMILES)	melting point [°C]
CCOCc1cc(OC)c(-c2ccc(C[C@H](NC(=O)c3c(Cl)cccc3Cl)C(=O)OCC)cc2)c(OC)c1 [Example 1, N-(2,6-Dichlorobenzoyl)-4-(2,6-dimethoxy-4-ethoxymethylphenyl)-L-phenylalanine ethyl ester]	91 to 94
COCc1cc(OC)c(-c2ccc(C[C@H](NC(=O)c3c(Cl)cccc3Cl)C(=O)O)cc2)c(OC)c1 [Example 5, N-(2,6-Dichlorobenzoyl)-4-(2,6-dimethoxy-4-methoxymethylphenyl)-L-phenylalanine]	232 to 235
CCOCc1cc(OC)c(-c2ccc(C[C@H](NC(=O)c3c(F)cccc3F)C(=O)OCC)cc2)c(OC)c1 [Example 10, N-(2,6-Difluorobenzoyl)-4-(2,6-dimethoxy-4-ethoxymethylphenyl)-L-phenylalanine ethyl ester]	87 to 89
COCc1cc(OC)c(-c2ccc(C[C@H](NC(=O)c3c(F)cccc3Cl)C(=O)O)cc2)c(OC)c1 [Example 23, N-(2-Chloro-6-fluorobenzoyl)-4-(2,6-dimethoxy-4-methoxymethylphenyl)-L-phenylalanine]	170 to 175

Results, then the molecule that gave them:

melting point [°C]	Structure (SMILES)
196 to 198	CCOCc1cc(OC)c(-c2ccc(C[C@H](NC(=O)c3c(Cl)cccc3Cl)C(=O)O)cc2)c(OC)c1 [Example 3, N-(2,6-Dichlorobenzoyl)-4-(2,6-dimethoxy-4-ethoxymethylphenyl)-L-phenylalanine]
183 to 186	CCCOCc1cc(OC)c(-c2ccc(C[C@H](NC(=O)c3c(Cl)cccc3Cl)C(=O)O)cc2)c(OC)c1 [Example 7, N-(2,6-Dichlorobenzoyl)-4-(2,6-dimethoxy-4-n-propoxymethylphenyl)-L-phenylalanine]
182 to 184	CCOCc1cc(OC)c(-c2ccc(C[C@H](NC(=O)c3c(F)cccc3Cl)C(=O)O)cc2)c(OC)c1 [Example 20, N-(2-Chloro-6-fluorobenzoyl)-4-(2,6-dimethoxy-4-ethoxymethylphenyl)-L-phenylalanine]
63 to 70	CCOCCc1cc(OC)c(-c2ccc(C[C@H](NC(=O)c3c(F)cccc3F)C(=O)O)cc2)c(OC)c1 [Example 31, N-(2,6-Difluorobenzoyl)-4-[2,6-dimethoxy-4-(2-ethoxyethyl)phenyl]-L-phenylalanine]
